Results published in patent US10611740B2, “Aryl dihydro-2H-benzo[b][1,4]oxazine sulfonamide and related compounds for use as agonists of RORγ and the treatment of disease” (Lycera Corporation, priority 2015, dated 2020).

Legend:
Gal4-RORγ-LBD = molecular target: T1, Gal4-RORγ-LBD (Homo sapiens, UniProt P51449); assay: Gal4-RORγ Luciferase Reporter Assay in HEK-293T Cells; assay type: cell-based; conditions: HEK-293 cells, luciferase reporter, with 2 μM ursolic acid
T1 construct: expressed in transfected cells; host or cells: HEK-293 cells (pcDNA3.1neo plasmid)
T1 sequence (P51449 269-508 limits assumed): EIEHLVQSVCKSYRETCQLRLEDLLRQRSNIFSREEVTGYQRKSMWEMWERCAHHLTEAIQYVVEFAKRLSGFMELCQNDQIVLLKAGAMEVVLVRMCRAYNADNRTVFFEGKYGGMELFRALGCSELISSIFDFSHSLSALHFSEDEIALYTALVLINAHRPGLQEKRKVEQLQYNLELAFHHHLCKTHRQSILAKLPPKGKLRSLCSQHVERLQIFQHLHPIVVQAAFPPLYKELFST
Summary of the method: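 Luminescence read-out (One-Glo, 10 min RT) after overnight compound exposure at 37 °C in HEK-293 cells carrying Gal4-RORγ-LBD plus a Gal4-luciferase reporter, in the presence of 2 μM ursolic acid. Max Response is the upper plateau from a 4-parameter logistic fit, normalized to untreated signal = 100.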

RORγ-LBD = molecular target: T2, RORγ-LBD (Homo sapiens, UniProt P51449); assay: RORγ-Ligand Binding Domain (LBD) TR-FRET Assay; assay type: biochemical;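 for TR-FRET Assay Max Response: 665/615 nm ratio relative to signal without ursolic acid or compound set at 100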
T2 construct: made in house; host or cells: SF9 cells (baculovirus)
T2 sequence (P51449 269-508 limits assumed): T1 sequence (P51449 269-508 limits assumed)
Summary of the method: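 TR-FRET read-out using a biotin-tagged SRC1 coactivator LXXLL peptide (200 nM final), with the antagonist ursolic acid present at 2 μM final. Receptor is His-tagged LBD expressed in SF9 cells, ~3 nM final in pH 7.0 Tris/KCl/EDTA/DTT/BSA buffer; compounds in 1% DMSO final.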

Row | Structure (SMILES) | EC50 (Gal4-RORγ-LBD) | Gal4-RORγ Assay Max Response (Gal4-RORγ-LBD) | EC50 (RORγ-LBD) | TR-FRET Assay Max Response (RORγ-LBD)
1 | CC(C)c1cccc(S(=O)(=O)N2C[C@H](CCc3n[nH]c(=O)o3)Oc3ccc(-c4cc(F)ccc4F)cc32)c1 [Compound 28D, (S)-5-(2-(6-(2,5-difluorophenyl)-4-((3-isopropylphenyl)sulfonyl)-3,4-dihydro-2H-benzo[b][1,4]-oxazin-2-yl)ethyl)-1,3,4-oxadiazol-2(3H)-one] | < 500 nM | ** (The symbol “**” indicates a value in the range of greater than 90 to 150) | < 500 nM | **** (The symbol “****” indicates a value greater than 200)
2 | COc1cccc(-c2ccc3c(c2)N(S(=O)(=O)c2cccc(C(F)(F)F)c2)C[C@H](CCc2n[nH]c(=O)o2)O3)c1 [Compound 28E, (S)-5-(2-(6-(3-methoxyphenyl)-4-((3-(trifluoromethyl)phenyl)-sulfonyl)-3,4-dihydro-2H-benzo[b][1,4]oxazin-2-yl)ethyl)-1,3,4-oxadiazol-2(3H)-one] | < 500 nM | ** (The symbol “**” indicates a value in the range of greater than 90 to 150) | < 500 nM | **** (The symbol “****” indicates a value greater than 200)
3 | CC(C)c1cccc(S(=O)(=O)N2C[C@H](CCc3n[nH]c(=O)o3)Oc3ccc(-c4cccc(N(C)C)n4)cc32)c1 [Compound 28F, (S)-5-(2-(6-(6-(dimethylamino)-pyridin-2-yl)-4-((3-isopropyl-phenyl)sulfonyl)-3,4-dihydro-2H-benzo[b][1,4]oxazin-2-yl)ethyl)-1,3,4-oxadiazol-2(3H)-one] | < 500 nM | ** (The symbol “**” indicates a value in the range of greater than 90 to 150) | < 500 nM | **** (The symbol “****” indicates a value greater than 200)
4 | COc1cc(F)cc(-c2ccc3c(c2)N(S(=O)(=O)c2cccc(C(F)(F)F)c2)C[C@H](CCc2n[nH]c(=O)o2)O3)c1F [Compound 28G, (S)-5-(2-(6-(2,5-difluoro-3-methoxyphenyl)-4-((3-(trifluoromethyl)phenyl)sulfonyl)-3,4-dihydro-2H-benzo[b][1,4]-oxazin-2-yl)ethyl)-1,3,4-oxadiazol-2(3H)-one] | < 500 nM | ** (The symbol “**” indicates a value in the range of greater than 90 to 150) | < 500 nM | **** (The symbol “****” indicates a value greater than 200)
5 | COc1cc(-c2ccc3c(c2)N(S(=O)(=O)c2cccc(C(F)(F)F)c2)C[C@H](CCc2n[nH]c(=O)o2)O3)nc(N(C)C)c1 [Compound 28H, (S)-5-(2-(6-(6-(dimethylamino)-4-methoxypyridin-2-yl)-4-((3-(trifluoromethyl)phenyl)sulfonyl)-3,4-dihydro-2H-benzo[b][1,4]-oxazin-2-yl)ethyl)-1,3,4-oxadiazol-2(3H)-one] | < 500 nM | * (The symbol “*” indicates a value in the range of 25 to 90) | < 500 nM | **** (The symbol “****” indicates a value greater than 200)
6 | O=c1[nH]nc(CC[C@H]2CN(S(=O)(=O)c3cccc(C(F)(F)F)c3)c3cc(-c4cc(F)cc(F)c4Cl)ccc3O2)o1 [Compound 28I, (S)-5-(2-(6-(2-chloro-3,5-difluorophenyl)-4-((3-(trifluoromethyl)phenyl)sulfonyl)-3,4-dihydro-2H-benzo[b][1,4]oxazin-2-yl)ethyl)-1,3,4-oxadiazol-2(3H)-one] | < 500 nM | ** (The symbol “**” indicates a value in the range of greater than 90 to 150) | < 500 nM | **** (The symbol “****” indicates a value greater than 200)
